Laboratory results taken from patent publication US4570013A, “Biphenylylalkanoic acid derivatives, methods of preparation and pharmaceutical compositions therefrom” (Dr. L. Zambeletti S.p.A., priority 1983, dated 1986).
pIC50: −log10 of the molar value. Read-outs that look alike come from different tables or passages of the source.

Experiments:
[1] = gastrolesive action after single doses; details: rat, in vivo
[2] = tested on: writhings caused by 2-phenylparabenzoquinone in mice; experiment: writhing test (method of Siegmund), 2-phenylparabenzoquinone, analgesic activity; format: in vivo, Swiss mice; details: for ED50: Mus musculus, po; for Contorsions % (change vs controls) / No. Contorsions: orally at ED50: biphenylylacetic acid 12, Ia 32 mg/kg
From the text: The analgesic activity has been studied according to the method described by Siegmund (E. Siegmund et al, Proc. Soc. Exptl. Biol. Med., 95, 729 (1957)), according to which the algogenic stimulus consists of the intraperitoneal injection of 2-phenylparabenzoquinone and the algesia manifests itself in repeated abdominal contractions with an extension of the rear limbs and contorsions of the body ("writhing test").

[3] = tested on: Hyperthermia caused by brewer's yeast in rats; experiment: brewer's yeast hyperthermia (method of C. Winter), antipyretic activity; format: in vivo; details: for ED50: Rattus norvegicus, po
From the text: The antipyretic activity has been studied according to the method of C. Winter, Toxicol. and Appl. Pharmacol., 5, 247 (1963), in rats, by determining the ability of the substance to reduce the increase of body temperature caused by the subcutaneous administration of brewer's yeast.

[4] = tested on: oedema induced in the rats' paw by intradermic injection of carrageenin; experiment: carrageenin-induced paw oedema (method of Winter), antiinflammatory activity; format: in vivo; details: Rattus norvegicus, po
[5] = tested on: aggregating action of arachidonic acid; experiment: ex vivo study of aggregating action of arachidonic acid after oral administration; format: in vivo; details: guinea pigs, oral dose equal to antiinflammatory ED50
[6] = tested on: platelet aggregation induced by arachidonic acid; experiment: platelet aggregation induced by arachidonic acid in vitro (method of Born); format: cell-based, guinea pigs; details: guinea pig platelet-enriched plasma
Description: The activity of compound Ia on the metabolism of arachidonic acid has been studied in virto according to the method described by B. Fjalland, J. Pharm. Pharmacol., 26, 448 (1974). In these tests the compound being examined is capable of inhibiting the synthesis of prostaglandin and thromboxane caused by arachidonic acid (AA) incubated with lung tissue of guinea pigs (IC50 =0.05 mM). The activity on the platelet aggregation induced by arachidonic acid has been determined in vitro on plasma enriched with platelets of guinea pigs according to the method described by G. V. R. Born, Nature 194, 927 (1962).

[7] = tested on: Salmonella thyphimurium TA 1535; TA 1538; TA 100; TA 98; experiment: Ames test, mutagenic action; format: cell-based; details: with and without metabolic activation, up to 5000 μg per plate
acute toxicity (DL50) = details: mouse, in vivo
From the text: Finally, the following values of DL50 have been determined in mice for compound Ia: […]

in vivo = details: rat, po
[8] = tested on: protective activity in the hot plate test; experiment: hot plate test, central analgesic activity; format: in vivo; details: up to 200 mg/kg^-1 orally, mice

Structure (SMILES): COc1ccc2cc(C(C)C(=O)O)ccc2c1 (stereo not drawn) [Naproxen, 6-methoxy-α-methyl-2-naphthaleneacetic acid, reference compound]
- TD50 ([1]; po): 17 mg/kg
- ED50 ([2]; read-out: Analgesic activity (against pain caused by 2-phenyl-p-benzo-quinone in mice) ED50): 20 mg/kg
- ED50 ([3]; rats, os, read-out: Antipyretic activity (temperature increase by brewer's yeast, in rats) ED50): 112 mg/kg
- ED50 ([4]; os, read-out: Antiinflammatory activity (oedema caused by carrageenin in rats) ED50): 24 mg/kg

Structure (SMILES): COc1ccccc1OCC(O)COC(=O)Cc1ccc(-c2ccccc2)cc1 (stereo not drawn) [Compound Ia, 1-Biphenylylacetoxy-3-(2-methoxyphenoxy)-propan-2-ol]
- duration of decrease in aggregating action of arachidonic acid [5]: remains up to the fifth hour
- start of decrease in aggregating action of arachidonic acid after administration [5]: starts three hours after the administration
- selectivity ratio [1]: 2 to 4
- pIC50 ([6]; Cavia porcellus, read-out: IC50, anti aggregating activity): 3.91
- anti aggregating activity, concentration dependence [6]: proportional to the concentration used
- mutagenic action (Ames test) [7]: has not shown any mutagenic action
- onset of analgesic activity after administration ([2]; 32 mg/kg orally, mice): 15 min
- Contorsions % (change vs controls) ([2]; 5 minutes): -28%
- No. Contorsions ([2]; 5 minutes): 33.1 ± 4.1
- Contorsions % (change vs controls) ([2]; 15 minutes): -33%
- No. Contorsions ([2]; 15 minutes): 35.1 ± 3.4
- Contorsions % (change vs controls) ([2]; 30 minutes): -54%
- No. Contorsions ([2]; 30 minutes): 22.7 ± 2.4
- Contorsions % (change vs controls) ([2]; 1 hour): -47%
- No. Contorsions ([2]; 1 hour): 26.8 ± 3.3
- Contorsions % (change vs controls) ([2]; 2 hours): -46%
- No. Contorsions ([2]; 2 hours): 25.4 ± 3.8
- Contorsions % (change vs controls) ([2]; 3 hours): -44%
- No. Contorsions ([2]; 3 hours): 27.6 ± 3.4
- Contorsions % (change vs controls) ([2]; 4 hours): -31%
- No. Contorsions ([2]; 4 hours): 33.5 ± 3.6
- Contorsions % (change vs controls) ([2]; 5 hours): -1%
- No. Contorsions ([2]; 5 hours): 45.0 ± 3.2
- ED50 ([2]; mice, orally, read-out: ED50, analgesic activity (writhing test)): 32 mg/kg
- LD50 (acute toxicity (DL50); ip, read-out: DL50 ip): 260 mg/kg
- LD50 (acute toxicity (DL50); po, read-out: DL50 orally): 3330 mg/kg
- TD50 (in vivo): 61.7 mg/kg
- Temperature after administration of the substance, t ([3]; 6 mg/kg os, 1 h): 38.01±0.07 °C
- Temperature change Δt after administration of the substance ([3]; 6 mg/kg os, 1 h): -0.63 °C
- Temperature after administration of the substance, t ([3]; 6 mg/kg os, 2 h): 37.71±0.09 °C
- Temperature change Δt after administration of the substance ([3]; 6 mg/kg os, 2 h): -0.75 °C
- P/S, ratio of protected animals with respect to total screened animals ([3]; 6 mg/kg os, 3 h): 1/10
- Temperature after administration of the substance, t ([3]; 6 mg/kg os, 3 h): 37.70 °C
- Temperature change Δt after administration of the substance ([3]; 6 mg/kg os, 3 h): -0.69 °C
- Temperature after administration of the substance, t ([3]; 6 mg/kg os, 4 h): 37.85±0.14 °C
- Temperature change Δt after administration of the substance ([3]; 6 mg/kg os, 4 h): -0.45 °C
- Temperature after administration of the substance, t ([3]; 6 mg/kg os, 5 h): 38.07±0.15 °C
- Temperature change Δt after administration of the substance ([3]; 6 mg/kg os, 5 h): -0.19 °C
- Temperature after administration of the substance, t ([3]; 6 mg/kg os, 6 h): 38.10 °C
- Temperature change Δt after administration of the substance ([3]; 6 mg/kg os, 6 h): -0.14 °C
- Temperature after administration of the substance, t ([3]; 12 mg/kg os, 1 h): 37.81±0.06 °C
- Temperature change Δt after administration of the substance ([3]; 12 mg/kg os, 1 h): -0.83 °C
- Temperature after administration of the substance, t ([3]; 12 mg/kg os, 2 h): 37.40±0.05 °C
- Temperature change Δt after administration of the substance ([3]; 12 mg/kg os, 2 h): -1.06 °C
- P/S, ratio of protected animals with respect to total screened animals ([3]; 12 mg/kg os, 3 h): 4/10
- Temperature after administration of the substance, t ([3]; 12 mg/kg os, 3 h): 37.32±0.08 °C
- Temperature change Δt after administration of the substance ([3]; 12 mg/kg os, 3 h): -1.07 °C
- Temperature after administration of the substance, t ([3]; 12 mg/kg os, 4 h): 37.41±0.07 °C
- Temperature change Δt after administration of the substance ([3]; 12 mg/kg os, 4 h): -0.89 °C
- Temperature after administration of the substance, t ([3]; 12 mg/kg os, 5 h): 37.66±0.09 °C
- Temperature change Δt after administration of the substance ([3]; 12 mg/kg os, 5 h): -0.50 °C
- Temperature after administration of the substance, t ([3]; 12 mg/kg os, 6 h): 37.88±0.07 °C
- Temperature change Δt after administration of the substance ([3]; 12 mg/kg os, 6 h): -0.36 °C
- Temperature after administration of the substance, t ([3]; 24 mg/kg os, 1 h): 37.66±0.05 °C
- Temperature change Δt after administration of the substance ([3]; 24 mg/kg os, 1 h): -0.98 °C
- Temperature after administration of the substance, t ([3]; 24 mg/kg os, 2 h): 37.31±0.05 °C
- Temperature change Δt after administration of the substance ([3]; 24 mg/kg os, 2 h): -1.15 °C
- P/S, ratio of protected animals with respect to total screened animals ([3]; 24 mg/kg os, 3 h): 8/10
- Temperature after administration of the substance, t ([3]; 24 mg/kg os, 3 h): 37.13±0.06 °C
- Temperature change Δt after administration of the substance ([3]; 24 mg/kg os, 3 h): -1.26 °C
- Temperature after administration of the substance, t ([3]; 24 mg/kg os, 4 h): 37.16±0.06 °C
- Temperature change Δt after administration of the substance ([3]; 24 mg/kg os, 4 h): -1.14 °C
- Temperature after administration of the substance, t ([3]; 24 mg/kg os, 5 h): 37.34±0.05 °C
- Temperature change Δt after administration of the substance ([3]; 24 mg/kg os, 5 h): -0.92 °C
- Temperature after administration of the substance, t ([3]; 24 mg/kg os, 6 h): 37.55±0.06 °C
- Temperature change Δt after administration of the substance ([3]; 24 mg/kg os, 6 h): -0.69 °C
- ED50 ([3]; rats, orally, read-out: ED50, antipyretic activity): 14 mg/kg
- duration of antipyretic activity ([3]; rats, orally): continues after the sixth hour
- onset of antipyretic activity after the treatment ([3]; rats, orally): within one hour after the treatment
- protective activity in the hot plate test (central analgesic activity) [8]: has not shown any protective activity
- ED50 ([4]; orally, read-out: effective dose ED50, antiedemigenic (antiinflammatory) activity): 22.5 mg/kg
